Reference: publication PMC3826719, “Impact of Polymorphic Variants on the Molecular Pharmacology of the Two-Agonist Conformations of the Human β1-Adrenoceptor” (PLoS ONE, 2013)
Where two headings read alike, the source gives them in different places. Each block holds one compound with its values, some of them ahead of it.

Columns and labels:
[1] = system: endogenous P2y2 receptors; assay: 3H-inositol phosphate accumulation, positive controls; type: cell-based, Chinese Hamster; conditions: 100 µM
Protocol: Cells were grown to confluence in clear plastic tissue culture treated 24-well plates containing ^3H-myo-inositol (4 µCi/ml). Cells were washed then incubated for 30 minutes in 1 ml of serum free media containing 20 mM LiCl (37°C, 5% CO2). Agonists (in 10 µl) were then added and the incubation continued for 1 hour. All reagents were then removed and 1 ml of cold (−20°C) methanol/0.12M HCl (1∶1, v/v) added to each well. […] Total ^3H-inositol phosphate levels were determined by liquid scintillation counting. 100 µM ATP and 100 µM UTP was used as positive controls.

[2] = target: T1, human β1-adrenoceptor polymorphic variant Gly49/Gly389 (Homo sapiens, UniProt P08588, S49G); assay: 3H-cAMP accumulation, Gly49/Gly389; type: cell-based; parameters: expressed in transfected cells; pcDNA3.1); conditions: for Emax: read-out: % isop (% isoprenaline maximal response); for EC50 / Log EC50 Site 2: biphasic cAMP response; for EC50: read-out: Log EC50 Site 1 (converted)
Protocol: (§1) Cells were grown to confluence in clear plastic tissue culture treated 24-well plates and ^3H-cAMP accumulation performed as previously described. Briefly, cells pre-labelled with ^3H-adenine by incubation for 2 hours with 2 µCi/ml ^3H-adenine in serum-free media (0.5 ml per well). The cells were washed, then 1 ml serum-free media containing 1 mM IBMX (3-isobutyl-1-methylxanthine) was added to each well and the cells incubated for 15 minutes. Agonists (in 10 µl serum-free media) were added to each well and the plates incubated for 5 hours in order to maximise the responses. The assay was terminated by adding 50 µl concentrated HCl per well, the plates frozen, thawed and ^3H-cAMP separated from other ^3H-nucleotides by sequential Dowex and alumina column chromatography. […] Where pertussis toxin (PTX) was used, cells were incubated in the 24 well plates with PTX at 100 ng/ml for 24 hours before experimentation.
(§2) The affinities of antagonists (KD values, Table 3) were calculated from the shift of the agonist concentration response curve in the presence of a fixed concentration of antagonist using equation 5: [drawing 5] (5) where DR (dose ratio) is the ratio of the agonist concentration required to stimulate an identical response in the presence and absence of a fixed concentration of antagonist [B].

[3] = target: T2, human β1-adrenoceptor polymorphic variant Ser49/Arg389 (Homo sapiens, UniProt P08588, G389R); assay: 3H-cAMP accumulation, Ser49/Arg389; type: cell-based; parameters: expressed in transfected cells; pcDNA3.1); conditions: for Emax: read-out: % isop (% isoprenaline maximal response); for Log EC50 Site 2 / EC50: biphasic cAMP response; for EC50: read-out: Log EC50 Site 1 (converted)
Protocol: as §1, §2

[4] = target: T3, human wildtype β1-adrenoceptor (Ser49/Gly389) (Homo sapiens, UniProt P08588); assay: 3H-cAMP accumulation, wildtype; type: cell-based; parameters: expressed in transfected cells; conditions: for Emax: read-out: % isop (% isoprenaline maximal response); for Log EC50 Site 2 / EC50: biphasic cAMP response; for EC50: read-out: Log EC50 Site 1 (converted)
Protocol: as §1, §2

[5] = target: T1, human β1-adrenoceptor polymorphic variant Gly49/Gly389; assay: cell-based; conditions: Log KD
Protocol: (§3) The cells were washed twice with 200 µl 4°C phosphate buffered saline, 100 µl Microscint 20 was added to each well, and the plates counted on a Topcount at 21°C for 2 minutes per well.
(§4) All data points were performed in triplicate and each 96-well plate also contained 6 determinations of total and non-specific binding.

[6] = target: T3, human wildtype β1-adrenoceptor (Ser49/Gly389); assay: cell-based; conditions: Log KD
Protocol: as §3, §4

[7] = target: T2, human β1-adrenoceptor polymorphic variant Ser49/Arg389; assay: cell-based; conditions: Log KD
Protocol: as §3, §4

[8] = system: ERK1/2 MAPKinase activation; assay: Alphascreen Surefire MAPKinase (pERK1/2) assay, positive control; type: cell-based, Chinese Hamster; conditions: 1 µM, 30 minutes
Protocol: Extracellular-signal-regulated kinases ERK1/2 activation was measured using a Surefire Alphascreen pERK1/2 kit as per manufacturer's instructions. Briefly, cells were grown to confluence in clear plastic tissue culture treated 96-well plates then serum starved by incubation in serum-free media for 24 hours before experimentation. Agonist in 20 µl was added to the well (1∶5 dilution in wells) and incubated for 5–60 minutes (37°C, 5% CO2). Reagents were then removed and 20 µl lysis buffer added to each well. Plates were frozen at −20°C overnight, thawed, and the assay then conducted as per manufacturer's instructions. After 2 hours in the dark, the plates were read on an Envision plate reader using standard Alphascreen settings. 1 µM phorbol ester was used as the positive control.

[9] = target: T4, human adenosine A1 receptor (Homo sapiens, UniProt P30542); assay: 3H-cAMP accumulation in CHO-A1 cells, pertussis toxin control; type: cell-based; conditions: 100 ng/ml for 24 hours, CHO cells expressing the human adenosine A1 receptor
T4 construct: expressed in transfected cells
T4 sequence (P30542 1-326): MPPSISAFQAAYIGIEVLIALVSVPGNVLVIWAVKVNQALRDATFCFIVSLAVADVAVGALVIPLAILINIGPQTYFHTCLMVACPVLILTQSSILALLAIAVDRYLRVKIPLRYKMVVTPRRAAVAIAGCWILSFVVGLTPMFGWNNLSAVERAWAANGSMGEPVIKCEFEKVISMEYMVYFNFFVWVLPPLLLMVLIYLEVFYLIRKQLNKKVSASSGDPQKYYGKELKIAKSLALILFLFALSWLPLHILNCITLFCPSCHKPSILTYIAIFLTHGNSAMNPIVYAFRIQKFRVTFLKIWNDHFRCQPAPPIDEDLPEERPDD

[10] = cells expressing Gly49/Gly389 receptor
[11] = cells expressing Ser49/Arg389 β1-receptors
[12] = cells expressing wildtype Ser49/Gly389 receptor
[13] = 3H-cAMP accumulation, main stable WT Ser49/Gly389 cell line (WT original), maximum defined by 10 µM isoprenaline

T3 sequence (P08588 whole entry): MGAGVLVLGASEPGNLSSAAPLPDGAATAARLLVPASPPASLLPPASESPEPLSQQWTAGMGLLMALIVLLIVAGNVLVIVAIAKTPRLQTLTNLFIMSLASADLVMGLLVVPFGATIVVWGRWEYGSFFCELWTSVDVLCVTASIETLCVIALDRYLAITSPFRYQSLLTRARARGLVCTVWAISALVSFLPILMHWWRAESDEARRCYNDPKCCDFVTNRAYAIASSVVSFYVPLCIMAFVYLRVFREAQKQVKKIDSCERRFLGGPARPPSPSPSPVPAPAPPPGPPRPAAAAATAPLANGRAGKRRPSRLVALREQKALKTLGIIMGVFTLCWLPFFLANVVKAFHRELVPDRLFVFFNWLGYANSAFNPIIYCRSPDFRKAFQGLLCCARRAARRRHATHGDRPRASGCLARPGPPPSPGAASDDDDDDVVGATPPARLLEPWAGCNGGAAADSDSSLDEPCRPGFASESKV
T2 sequence (P08588 whole entry G389R): as the sequence (P08588 whole entry) above, with G389R counted along it
T1 sequence (P08588 whole entry S49G): as the sequence (P08588 whole entry) above, with S49G counted along it

Compound: Nc1ncnc2c1ncn2[C@@H]1O[C@H](COP(=O)(O)OP(=O)(O)OP(=O)(O)O)[C@@H](O)[C@H]1O [ATP]
- 3H-inositol phosphate accumulation response [1, 10]: 2.77±0.40 fold over basal
- 3H-inositol phosphate accumulation response [1, 11]: 2.96±0.28 fold over basal
- 3H-inositol phosphate accumulation response [1, 12]: 2.18±0.17 fold over basal

Compound: NC[C@H](O)c1ccc(O)c(O)c1 [Noradrenaline]
- Emax [2]: 99.1 ± 3.7%
- Emax [3]: 96 ± 3%
- % isop (% isoprenaline maximal response) [4, 13]: full agonists
- Emax [4]: 95.5 ± 2%

Compound: CCCCCCCCCCCCCC(=O)O[C@@H]1[C@@H](C)[C@@]2(O)[C@@H](C=C(CO)C[C@]3(O)C(=O)C(C)=C[C@@H]23)[C@@H]2C(C)(C)[C@]12OC(C)=O [phorbol ester]
- MAPKinase maximum stimulation ([8]; Gly49/Gly389 receptor cells): 12.6±3.8 fold over basal
- MAPKinase maximum stimulation ([8]; Ser49/Arg389 receptor cells): 7.4±1.4 fold over basal
- MAPKinase maximum stimulation ([8]; wildtype receptor cells): 11.9±1.6 fold over basal

Compound: pertussis toxin (PTX)
- Effect of pre-incubation on the cimaterol or CGP 12177 3H-cAMP responses ([2]; 100 ng/ml for 24 hours, Gly49/Gly389 receptor): no effect
- Effect of pre-incubation on the cimaterol or CGP 12177 3H-cAMP responses ([3]; 100 ng/ml for 24 hours, Ser49/Arg389 receptor): no effect
- Effect of pre-incubation on Gi-coupled inhibition of 3H-cAMP accumulation in response to cyclopentyladenosine (CPA) [9]: completely inhibited
- Effect of pre-incubation on the cimaterol or CGP 12177 3H-cAMP responses ([4]; 100 ng/ml for 24 hours, WT receptor): no effect

Second part, the compound after the results:

- Emax [2]: 95.9 ± 3.2%
- Emax [3]: 91.6 ± 2.2%
- % isop (% isoprenaline maximal response) [4, 13]: full agonists
- Emax [4]: 96.4 ± 2.1%
Compound: CNC[C@H](O)c1ccc(O)c(O)c1 [Adrenaline]

- Emax ([2]; 3H-cAMP accumulation, main stable Gly49/Gly389 cell line (original), maximum defined by 10 µM isoprenaline): 0%
- Emax ([3]; 3H-cAMP accumulation, main stable Ser49/Arg389 cell line (original), maximum defined by 10 µM isoprenaline): 1.3 ± 0.2%
- Emax [4, 13]: 0%
Compound: CC(C)NCC(O)COc1ccc(CC(N)=O)cc1 (stereo not shown) [Atenolol]

- Kd ([5]; competition with 3H-CGP 12177, Gly49/Gly389 transiently transfected populations): 1.58 nM
- Kd ([5]; competition with 3H-CGP 12177, additional stable Gly49/Gly389 cell line V87): 0.427 nM
- Kd ([5]; competition with 3H-CGP 12177, whole cells, main stable CHO cell line Gly49/Gly389): 0.339 nM
- Kd ([6]; competition with 3H-CGP 12177, WT transiently transfected populations): 1.32 nM
- Kd ([6]; competition with 3H-CGP 12177, additional stable WT cell line T3): 1.45 nM
- Kd ([6]; competition with 3H-CGP 12177, additional stable WT cell line T88): 0.355 nM
- Kd ([6]; competition with 3H-CGP 12177, whole cells, main stable CHO cell line WT (Ser49/Gly389)): 0.275 nM
- % isoprenaline ([2]; % maximum isoprenaline response for the overall biphasic response, main Gly49/Gly389 cell line): 25.7±0.8%
- % Site 1 ([2]; % of the response occurring at site 1, main Gly49/Gly389 cell line): 51.5±2.4%
- % Site 1 ([2]; Gly49/Gly389 Cell line V6): 54.0 ± 2.7%
- % Site 1 ([2]; Gly49/Gly389 Cell line V87): 69.3 ± 7.5%
- EC50 ([2]; Gly49/Gly389 Cell line V6): 0.282 nM
- Log EC50 Site 2 ([2]; Gly49/Gly389 Cell line V87): -7.34 ± 0.23
- EC50 ([2]; Gly49/Gly389 Cell line V87): 0.309 nM
- Log EC50 Site 2 ([2]; main Gly49/Gly389 cell line): −7.45±0.11
- EC50 ([2]; main Gly49/Gly389 cell line): 0.417 nM
- % isoprenaline ([2]; overall biphasic response, Gly49/Gly389 Cell line V6): 27.5 ± 1.0%
- % isoprenaline ([2]; overall biphasic response, Gly49/Gly389 Cell line V87): 22.8 ± 1.1%
- % isoprenaline ([3]; % maximum isoprenaline response for the overall biphasic response, main Ser49/Arg389 cell line): 53.6±1.2%
- % Site 1 ([3]; % of the response occurring at site 1, main Ser49/Arg389 cell line): 80.4±2.6%
- % Site 1 ([3]; Ser49/Arg389 Cell line W81): 47.6 ± 3.3%
- % Site 1 ([3]; Ser49/Arg389 Cell line W93): 51.5 ± 4.0%
- Log EC50 Site 2 ([3]; Ser49/Arg389 Cell line W81): -6.22 ± 0.15
- EC50 ([3]; Ser49/Arg389 Cell line W81): 0.724 nM
- Log EC50 Site 2 ([3]; Ser49/Arg389 Cell line W93): -7.50 ± 0.07
- EC50 ([3]; Ser49/Arg389 Cell line W93): 0.589 nM
- Log EC50 Site 2 ([3]; main Ser49/Arg389 cell line): −6.98±0.19
- EC50 ([3]; main Ser49/Arg389 cell line): 0.447 nM
- % isoprenaline ([3]; overall biphasic response, Ser49/Arg389 Cell line W81): 34.8 ± 2.0%
- % isoprenaline ([3]; overall biphasic response, Ser49/Arg389 Cell line W93): 32.8 ± 1.1%
- Kd ([7]; competition with 3H-CGP 12177, Ser49/Arg389 transiently transfected populations): 1.82 nM
- Kd ([7]; competition with 3H-CGP 12177, additional stable Ser49/Arg389 cell line W81): 0.275 nM
- Kd ([7]; competition with 3H-CGP 12177, additional stable Ser49/Arg389 cell line W93): 0.646 nM
- Kd ([7]; competition with 3H-CGP 12177, whole cells, main stable CHO cell line Ser49/Arg389): 0.347 nM
- % isoprenaline ([4]; % maximum isoprenaline response for the overall biphasic response, main WT Ser49/Gly389 cell line): 24.6±4.1%
- % Site 1 ([4]; % of the response occurring at site 1, main WT Ser49/Gly389 cell line): 59.8±2.8%
- % Site 1 ([4]; WT cell line T3): 75.6 ± 4.5%
- % Site 1 ([4]; WT cell line T88): 48.0 ± 4.2%
- Log EC50 Site 2 ([4]; WT cell line T3): -7.09 ± 0.15
- EC50 ([4]; WT cell line T3): 0.708 nM
- Log EC50 Site 2 ([4]; WT cell line T88): -7.46 ± 0.09
- EC50 ([4]; WT cell line T88): 0.234 nM
- Log EC50 Site 2 ([4]; main WT Ser49/Gly389 cell line): −7.53±0.05
- EC50 ([4]; main WT Ser49/Gly389 cell line): 0.347 nM
- % isoprenaline ([4]; overall biphasic response, WT cell line T3): 43.4 ± 2.0%
- % isoprenaline ([4]; overall biphasic response, WT cell line T88): 23.6 ± 2.4%
Compound: CC(C)(Cc1c[nH]c2ccccc12)NCC(O)COc1ccccc1C#N (stereo not shown) [Bucindolol]

- 3H-inositol phosphate accumulation response [1, 10]: 2.32±0.29 fold over basal
- 3H-inositol phosphate accumulation response [1, 11]: 2.63±0.40 fold over basal
- 3H-inositol phosphate accumulation response [1, 12]: 1.87±0.11 fold over basal
Compound: O=c1ccn([C@@H]2O[C@H](COP(=O)(O)OP(=O)(O)OP(=O)(O)O)[C@@H](O)[C@H]2O)c(=O)[nH]1 [UTP]
